Each compound was assayed against T1, Steroid hormone receptor ERR1 (Homo sapiens, UniProt P11474) (assay: Inverse agonist activity at GAL4-fused human ERRalpha expressed in HEK293 cells assessed as inhibition of transcriptional activity after 20 hrs by luciferase reporter gene assay).
T1 sequence (P11474 whole entry): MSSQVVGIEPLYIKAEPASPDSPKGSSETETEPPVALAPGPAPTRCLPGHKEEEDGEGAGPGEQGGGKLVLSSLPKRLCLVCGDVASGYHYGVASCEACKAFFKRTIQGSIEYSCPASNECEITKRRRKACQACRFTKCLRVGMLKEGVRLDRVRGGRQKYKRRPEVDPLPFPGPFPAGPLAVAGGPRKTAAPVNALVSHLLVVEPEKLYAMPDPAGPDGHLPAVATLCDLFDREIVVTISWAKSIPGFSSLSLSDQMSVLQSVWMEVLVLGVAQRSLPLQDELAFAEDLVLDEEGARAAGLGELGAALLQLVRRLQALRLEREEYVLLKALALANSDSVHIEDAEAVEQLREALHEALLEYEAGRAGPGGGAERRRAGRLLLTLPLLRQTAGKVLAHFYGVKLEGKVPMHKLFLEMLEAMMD
Assay type: cell-based

| IC50 [nM] | Compound |
| --- | --- |
| 80 | CC(=O)c1ccc(N2CCN(C(=O)c3cc4c(C)nn(Cc5cccc(OCCCCCNC(=O)CCC6=[N+]7C(=Cc8c(C)cc(C)n8[B-]7(F)F)C=C6)c5)c4s3)C[C@H]2C)nc1 |
| 22 | COCCOc1cccc(Cn2nc(C)c3cc(C(=O)N4CCN(c5ccc(C(C)=O)cn5)[C@H](C)C4)sc32)c1 |
| 280 | CC(=O)c1ccc(N2CCN(C(=O)c3cc4c(C)nn(Cc5cccc(OCCOCCNC(=O)CCC6=[N+]7C(=Cc8c(C)cc(C)n8[B-]7(F)F)C=C6)c5)c4s3)C[C@H]2C)nc1 |
| 210 | CC(=O)c1ccc(N2CCN(C(=O)c3cc4c(C)nn(Cc5cccc(OCC6CCN(C(=O)CCC7=[N+]8C(=Cc9c(C)cc(C)n9[B-]8(F)F)C=C7)CC6)c5)c4s3)C[C@H]2C)nc1 |
| 390 | CC(=O)c1ccc(N2CCN(C(=O)c3cc4c(C)nn(Cc5cccc(OCCOCCOCCNC(=O)CCC6=[N+]7C(=Cc8c(C)cc(C)n8[B-]7(F)F)C=C6)c5)c4s3)C[C@H]2C)nc1 |
| 170 | CC(=O)c1ccc(N2CCN(C(=O)c3cc4c(C)nn(Cc5cccc(OCCCCNC(=O)CCC6=[N+]7C(=Cc8c(C)cc(C)n8[B-]7(F)F)C=C6)c5)c4s3)C[C@H]2C)nc1 |
| 170 | CC(=O)c1ccc(N2CCN(C(=O)c3cc4c(C)nn(Cc5cccc(OCc6ccc(CNC(=O)CCC7=[N+]8C(=Cc9c(C)cc(C)n9[B-]8(F)F)C=C7)cc6)c5)c4s3)C[C@H]2C)nc1 |
| 770 | CC(=O)c1ccc(N2CCN(C(=O)c3cc4c(C)nn(Cc5cccc(OCC6CCN(C(=O)CCC7=[N+]8C(=Cc9c(C)cc(C)n9[B-]8(F)F)C=C7)C6)c5)c4s3)C[C@H]2C)nc1 (some centres not stated) |
| > 1000 | CC(=O)c1ccc(N2CCN(C(=O)c3cc4c(C)nn(Cc5cccc(OCC6CN(C(=O)CCC7=[N+]8C(=Cc9c(C)cc(C)n9[B-]8(F)F)C=C7)CCO6)c5)c4s3)C[C@H]2C)nc1 (some centres not stated) |
| 570 | CC(=O)c1ccc(N2CCN(C(=O)c3cc4c(C)nn(Cc5cccc(OCCOCCOCCOCCNC(=O)CCC6=[N+]7C(=Cc8c(C)cc(C)n8[B-]7(F)F)C=C6)c5)c4s3)C[C@H]2C)nc1 |
| 650 | CC(=O)c1ccc(N2CCN(C(=O)c3cc4c(C)nn(Cc5cccc(OCCNC(=O)CCC6=[N+]7C(=Cc8c(C)cc(C)n8[B-]7(F)F)C=C6)c5)c4s3)C[C@H]2C)nc1 |
| 490 | CC(=O)c1ccc(N2CCN(C(=O)c3cc4c(C)nn(Cc5cccc(OCCCNC(=O)CCC6=[N+]7C(=Cc8c(C)cc(C)n8[B-]7(F)F)C=C6)c5)c4s3)C[C@H]2C)nc1 |

Source: ChEMBL document CHEMBL3994653, “Parallel fluorescent probe synthesis based on the large-scale preparation of BODIPY FL propionic acid” (Bioorg Med Chem Lett, 2017)
